This is an account of results in US20260071220A1, “CONJUGATE OF NUCLEOTIDE ANALOG-CONTAINING DOUBLE-STRANDED RNAI ANALOG” (BaseCure Therapeutics LLC, priority 2022, published 2026).

Holding throughout (conditions): 24 h, positive control
Data set [1] relates to HEK BLUE hTLR7. The data set is described as follows: Cell activity detection (CellTiter-Glo) in hTLR7 cells. It counts as cell-based, human. As to the method: (§1) 1) The conjugate of the present invention was diluted to a concentration that was 20 times a final concentration, the diluted conjugate was mixed with RNAiMAX-OPTI MEM (RNAiMAX:OPTI MEM=3:47) at a ratio of 1:1 and incubated for 15 min at room temperature.
(§2) 2) 10 μL of incubated conjugate of the present invention was added into a corresponding cell plate, with 10 concentrations in total, a maximum concentration being 200 nM, and double duplicated wells for each concentration.
(§3) 4) 90 μL of cells were seeded into a 96-well plate with the conjugate at the density of 50,000 cells/well.
(§4) 5) The conjugate of the present invention and the cells were co-incubated for 24 h in an incubator under the conditions of 37° C. and 5% CO2.
(§5) 8) Cell activity detection: the operation was carried out according to the method in the Celltiter-Glo specification, and a chemiluminescence signals (RLU) were detected using the multifunctional microplate reader Flexstation III.
(§6) Compound activity: the OD650 values were analyzed using GraphPad Prism software, and a dose effect curve of the compound was fit, and the EC50 value of the compound was calculated. Cell activity detection: the calculation formula of cell activity % was as follows. The cell activity % value was analyzed using GraphPadPrism software, the dose effect curve of the compound was fit, and the CC50 value of the compound on cell was calculated.
(Cellular ATP, detected with luciferase, serves as a proxy for viable cell number.)

For data set [2], the system named is HEK BLUE hTLR8. The data set is described as follows: Cell activity detection (CellTiter-Glo) in hTLR8 cells. The data set is classed as cell-based, human. As for the experimental part:
as §1, §2, §3, §4, §5, §6

The target in data set [3] is T1, hTLR3 (Homo sapiens, UniProt O15455).
T1 construct: host or cells: HEK BLUE hTLR3 (HEK293-derived SEAP reporter line)
T1 sequence (O15455 24-904): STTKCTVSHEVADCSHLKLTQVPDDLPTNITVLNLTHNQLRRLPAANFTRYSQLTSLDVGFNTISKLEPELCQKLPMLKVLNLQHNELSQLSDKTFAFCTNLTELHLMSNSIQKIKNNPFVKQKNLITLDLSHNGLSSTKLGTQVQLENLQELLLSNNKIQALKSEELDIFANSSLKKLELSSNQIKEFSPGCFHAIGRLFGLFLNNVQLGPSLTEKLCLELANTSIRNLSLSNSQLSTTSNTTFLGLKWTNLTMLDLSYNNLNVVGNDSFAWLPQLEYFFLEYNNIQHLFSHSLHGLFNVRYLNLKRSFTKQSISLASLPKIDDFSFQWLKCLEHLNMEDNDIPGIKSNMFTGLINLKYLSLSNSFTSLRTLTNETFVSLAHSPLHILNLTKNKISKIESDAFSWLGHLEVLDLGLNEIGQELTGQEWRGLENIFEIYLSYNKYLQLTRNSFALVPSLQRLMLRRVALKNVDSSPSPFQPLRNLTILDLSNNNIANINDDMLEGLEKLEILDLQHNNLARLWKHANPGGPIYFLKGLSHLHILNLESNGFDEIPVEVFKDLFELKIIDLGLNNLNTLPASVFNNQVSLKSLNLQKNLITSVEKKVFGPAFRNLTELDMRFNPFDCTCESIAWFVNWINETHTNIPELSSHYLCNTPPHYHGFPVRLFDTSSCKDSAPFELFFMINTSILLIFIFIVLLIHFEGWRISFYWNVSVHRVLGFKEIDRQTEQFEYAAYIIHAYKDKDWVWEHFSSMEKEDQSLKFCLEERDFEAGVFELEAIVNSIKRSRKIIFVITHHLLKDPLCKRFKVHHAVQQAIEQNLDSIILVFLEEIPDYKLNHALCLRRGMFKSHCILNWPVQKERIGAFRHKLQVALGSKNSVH
Briefly: Agonistic activity on hTLR3 cells (HEK BLUE, QUANTI-Blue OD650). It counts as cell-based. As to the method:
as §1, §2
10 μL of 0.5 μM BLOCK-iT™ Alexa Fluor® Red Fluorescent Control was added into 2 transfection positive control wells.
as §3, §4
7) Compound activity detection: 20 μL of cell supernatant was taken from each well and added into an experimental plate containing 180 μL of QUANTI-Blue™ reagent and then incubated for 1 h at 37° C., followed by detecting an absorbance values at 650 nm (OD650) using the multifunctional microplate reader Flexstation III.
as §6

Data set [4] relates to HEK BLUE hTLR3. Briefly: Cell activity detection (CellTiter-Glo) in hTLR3 cells. It counts as cell-based, human. As for the experimental part:
as §1, §2, §3, §4, §5, §6

Where only a bound is given, the exact number is not on record here.

Turning to `CCOCc1nc2c(N)nc3ccccc3c2n1CC(C)(C)O` [Conjugate R848, R848, reference compound], the 50% cytotoxic concentration (CC50) in data set [1] and in data set [2] was over 10 µg/mL each time.

“Poly (I:C) HMW [Poly(I:C) HMW, reference compound]” gave an EC50 in data set [3] of 59.43 ng/mL. This compound also gave a half-maximal cytotoxic concentration (CC50) in data set [4] of over 2000 ng/mL.

Broadly, the CC50 is the concentration at which the toxic effect on the cells reaches its halfway point. A low value points to greater toxicity to the cells. Broadly, the EC50 is the concentration that produces a half-maximal response.
